According to patent US12129221B2, “Difluoro phenyl amide RIP1 inhibitor” (SIRONAX LTD, priority 2018, dated 2024):
Like-named read-outs stand apart in the source and are kept apart here.

What was measured:
[1] = system: ferroptosis; assay: Ferroptosis inhibitor activity; format: cell-based; details: 1 uM threshold activity extrapolated
Source text: Ferroptosis Inhibitor Activity 1 Um Threshold Activity Extrapolated

[2] = Liver microsome stability, mouse; format: in vitro ADME; details: liver microsomes
Source text: (§1) Representative Metabolic Stability Data I; +, Extrapolated.

[3] = Liver microsome stability, monkey; format: in vitro ADME; parameters: key to Monkey T1/2 (min): +, Extrapolated; details: liver microsome stability; for half-life: monkey, liver microsomes, read-out: Monkey T1/2
Source text: as §1

[4] = Hepatocyte stability, mouse; format: in vitro ADME; parameters: key to Mouse T1/2 (min): +, Extrapolated; details: Hepatocyte stability; for Mouse T1/2 (min): extrapolated
Source text: (§2) Representative Metabolic Stability Data II, +, Extrapolated.

[5] = Liver microsome stability, mini-pig; format: in vitro ADME; parameters: key to mini-pig T1/2 (min): +, Extrapolated; details: extrapolated
Source text: as §1

[6] = Liver microsome stability, dog; format: in vitro ADME; parameters: key to Dog T1/2 (min): +, Extrapolated; details: liver microsome stability; for half-life: dog, liver microsomes, read-out: Dog T1/2
Source text: as §1

[7] = PK in rat; parameters: species or system SD rat; details: Sprague-Dawley, in vivo; for bioavailability / half-life: rat, po
Source text: Representative PK Date of Pro-Drug Compounds

[8] = Liver microsome stability, human; format: in vitro ADME; details: liver microsomes
Source text: as §1

[9] = Hepatocyte stability, mini-pig; format: in vitro ADME; parameters: key to mini-pig T1/2 (min): +, Extrapolated; details: extrapolated
Source text: as §2

[10] = Hepatocyte stability, rat; format: in vitro ADME; parameters: key to Rat T1/2 (min): +, Extrapolated; details: Hepatocyte stability; for Rat T1/2 (min): extrapolated
Source text: as §2

[11] = Hepatocyte stability, dog; format: in vitro ADME; parameters: key to Dog T1/2 (min): +, Extrapolated; details: Hepatocyte stability; for Dog T1/2 (min): extrapolated
Source text: as §2

[12] = Liver microsome stability, rat; format: in vitro ADME; details: liver microsomes
Source text: as §1

[13] = system: necrosis; assay: Necrosis inhibitory activity (cell necrosis / cell viability assay); format: cell-based
Source text: Necrosis Inhibitory Activity
(§3) Representative IC50 of hRIP1 Kinase Assay Correlated with Our IC50 of Cell Necrosis Assay: […]

[14] = Hepatocyte stability, human; format: in vitro ADME; parameters: key to Human T1/2 (min): +, Extrapolated; details: Hepatocyte stability; for Human T1/2 (min): extrapolated
Source text: as §2

[15] = Hepatocyte stability, monkey; format: in vitro ADME; parameters: key to Monkey T1/2 (min): +, Extrapolated; details: Hepatocyte stability; for Monkey T1/2 (min): extrapolated
Source text: as §2

[16] = biological target: Human RIP1 kinase (Homo sapiens (Human), UniProt Q13546); assay: Human RIP1 kinase assay; format: biochemical; details: given as bound or range
Human RIP1 kinase, sequence (Q13546 whole entry): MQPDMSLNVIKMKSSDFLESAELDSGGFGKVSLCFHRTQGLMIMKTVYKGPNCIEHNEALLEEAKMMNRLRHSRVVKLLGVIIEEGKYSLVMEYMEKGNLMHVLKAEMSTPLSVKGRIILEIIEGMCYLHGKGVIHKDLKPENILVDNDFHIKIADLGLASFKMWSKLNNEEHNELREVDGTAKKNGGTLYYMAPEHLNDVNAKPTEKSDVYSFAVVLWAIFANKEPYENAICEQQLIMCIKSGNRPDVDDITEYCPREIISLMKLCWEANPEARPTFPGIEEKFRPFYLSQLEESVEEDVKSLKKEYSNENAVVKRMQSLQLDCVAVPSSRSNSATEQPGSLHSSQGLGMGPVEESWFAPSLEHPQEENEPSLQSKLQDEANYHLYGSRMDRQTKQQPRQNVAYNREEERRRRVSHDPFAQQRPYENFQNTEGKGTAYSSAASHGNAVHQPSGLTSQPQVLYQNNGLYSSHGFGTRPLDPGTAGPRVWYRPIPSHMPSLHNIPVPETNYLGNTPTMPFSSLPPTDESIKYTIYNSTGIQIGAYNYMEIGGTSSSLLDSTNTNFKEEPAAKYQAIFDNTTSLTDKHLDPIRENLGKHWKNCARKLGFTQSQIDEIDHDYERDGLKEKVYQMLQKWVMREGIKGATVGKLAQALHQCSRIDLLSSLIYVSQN
Source text: as §3

[17] = system: HT-29; assay: EC50 in HT-29; format: cell-based; details: Homo sapiens
[18] = PK in dog; details: in vivo
[19] = PK in mouse; details: in vivo
[20] = liver microsome stability, read-out: Mouse T1/2
[21] = liver microsome stability, read-out: Human T1/2
[22] = liver microsome stability, read-out: Rat T1/2
[23] = Necrosis Inhibitory Activity, given as range, read-out: EC50
[24] = 60 mg/kg, SD rat, dose 60 mg/Kg micropower
[25] = cell necrosis assay, given as bound or range, read-out: Cell viability assay, EC50
[26] = comparison table with WO2016/101885 compounds, read-out: Mouse Liver Microsome T1/2
[27] = comparison table with WO2016/101885 compounds, read-out: Human Liver Microsome T1/2
[28] = comparison table with WO2016/101885 compounds, read-out: Rat Liver Microsome T1/2

SMILES: CCC(C)(C)C(=O)N(O)Cc1ccc(Cl)cc1 [Compound 15, N-(4-chlorobenzyl)-N-hydroxy-2,2-dimethylbutanamide]
- EC50 [1]: 1000 to 10000 nM
- half-life [2, 20]: 16.6 min
- Monkey T1/2 (min) ([3]; extrapolated): +
- Mouse T1/2 (min) [4]: +
- mini-pig T1/2 (min) [5]: +
- Dog T1/2 (min) ([6]; extrapolated): +
- AUC ([7]; SD rat, PO 10 mg/kg): 923 ng·h/mL
- bioavailability ([7]; 10 mg/kg, SD rat, PO 10 mg/kg): 20.3%
- half-life ([7]; 10 mg/kg, SD rat, PO 10 mg/kg): 293 min
- half-life [8, 21]: 96.8 min
- mini-pig T1/2 (min) [9]: +
- Rat T1/2 (min) [10]: +
- Dog T1/2 (min) [11]: +
- half-life [12, 22]: 41.1 min
- EC50 [13, 23]: 1 to 1000 nM
- Human T1/2 (min) [14]: +
- Monkey T1/2 (min) [15]: +

SMILES: C=CC(C)(C)C(=O)N(O)Cc1ccccc1 [Compound 19, N-benzyl-N-hydroxy-2,2-dimethylbut-3-enamide]
- EC50 [1]: 1000 to 10000 nM
- half-life [2, 20]: 25.4 min
- half-life [3]: 0.3 min
- Mouse T1/2 (min) [4]: +
- mini-pig T1/2 (min) [5]: +
- half-life [6]: 6 min
- half-life [8, 21]: 154 min
- mini-pig T1/2 (min) [9]: +
- Rat T1/2 (min) [10]: +
- Dog T1/2 (min) [11]: +
- half-life [12, 22]: 28.9 min
- EC50 [13, 23]: 1 to 1000 nM
- Human T1/2 (min) [14]: +
- Monkey T1/2 (min) [15]: +

SMILES: [2H]CC([2H])C(C)(C)C(=O)N(O)Cc1cc(F)cc(F)c1 (centres unmarked) [Compound 26, N-(3,5-difluorobenzyl)-N-hydroxy-2,2-dimethylbutanamide-3,4-d2]
- EC50 [1]: 1000 to 10000 nM
- half-life [2, 20]: 21.1 min
- half-life [3]: 4.97 min
- half-life ([4]; mouse, hepatocytes, read-out: Mouse T1/2): 21 min
- mini-pig T1/2 (min) [5]: +
- half-life [6]: 2.31 min
- AUC ([7]; SD rat, PO, dose 60 mg/Kg micropower): 8340 ng·h/mL
- bioavailability [7, 24]: 74.1%
- half-life [7, 24]: 171 min
- half-life [8, 21]: 136 min
- half-life ([10]; rat, hepatocytes, read-out: Rat T1/2): 33.4 min
- half-life ([11]; dog, hepatocytes, read-out: Dog T1/2): 8.43 min
- half-life [12, 22]: 23.3 min
- EC50 [13, 23]: 1 to 1000 nM
- half-life ([14]; human, hepatocytes, read-out: Human T1/2): 110 min
- half-life ([15]; monkey, hepatocytes, read-out: Monkey T1/2): 19.3 min

SMILES: [2H]CC([2H])C(C)(C)C(=O)N(O)Cc1ccccc1 (centres unmarked) [Compound 27, N-benzyl-N-hydroxy-2,2-dimethylbutanamide-3,4-d2]
- EC50 [1]: 1000 to 10000 nM
- half-life [2, 20]: 26.5 min
- half-life [3]: 0.6 min
- Mouse T1/2 (min) [4]: +
- mini-pig T1/2 (min) [5]: +
- half-life [6]: 1.5 min
- AUC ([7]; SD rat, PO 10 mg/kg): 78.6 ng·h/mL
- bioavailability ([7]; 10 mg/kg, SD rat, PO 10 mg/kg): 5.29%
- half-life ([7]; 10 mg/kg, SD rat, PO 10 mg/kg): 55.2 min
- half-life [8, 21]: 178 min
- mini-pig T1/2 (min) [9]: +
- Rat T1/2 (min) [10]: +
- Dog T1/2 (min) [11]: +
- half-life [12, 22]: 19.8 min
- EC50 [13, 23]: 1 to 1000 nM
- Human T1/2 (min) [14]: +
- Monkey T1/2 (min) [15]: +

SMILES: [2H]C([2H])C([2H])([2H])C(C)(C)C(=O)N(O)Cc1ccccc1 [Compound 28, N-benzyl-N-hydroxy-2,2-dimethylbutanamide-3,3,4,4-d4]
- EC50 [1]: 1000 to 10000 nM
- half-life [2, 20]: 33.6 min
- half-life [3]: 3.3 min
- Mouse T1/2 (min) [4]: +
- mini-pig T1/2 (min) [5]: +
- half-life [6]: 3.5 min
- AUC ([7]; SD rat, PO 10 mg/kg): 318 ng·h/mL
- bioavailability ([7]; 10 mg/kg, SD rat, PO 10 mg/kg): 14.8%
- half-life ([7]; 10 mg/kg, SD rat, PO 10 mg/kg): 37 min
- half-life [8, 21]: 195 min
- mini-pig T1/2 (min) [9]: +
- Rat T1/2 (min) [10]: +
- Dog T1/2 (min) [11]: +
- half-life [12, 22]: 28.6 min
- EC50 [13, 23]: 1 to 1000 nM
- Human T1/2 (min) [14]: +
- Monkey T1/2 (min) [15]: +

SMILES: CCC1(C(=O)N(O)Cc2ccccc2)CC1 [Compound 38, N-benzyl-1-ethyl-N-hydroxycyclopropane-1-carboxamide]
- EC50 [1]: 1000 to 10000 nM
- IC50 [16]: 100 to 1000 nM
- EC50 [13, 23]: 1000 to 10000 nM
- EC50 [13, 25]: 1 to 10000 nM

SMILES: Cc1ccsc1CN(O)C(=O)C(C)(C)C(F)(F)F [Compound 48, 3,3,3-trifluoro-N-hydroxy-2,2-dimethyl-N-((3-methylthiophen-2-yl)methyl)propanamide]
- EC50 [1]: 1000 to 10000 nM
- IC50 [16]: 100 to 1000 nM
- EC50 [13, 23]: 1000 to 10000 nM
- EC50 [13, 25]: 1 to 10000 nM

SMILES: O=C(C1CCN(c2ncc(F)cn2)CC1)N(O)Cc1ccccc1 [Compound 84, N-benzyl-1-(5-fluoropyrimidin-2-yl)-N-hydroxypiperidine-4-carboxamide]
- EC50 [1]: 1000 to 10000 nM
- IC50 [16]: < 100 nM
- EC50 [13, 23]: 1 to 1000 nM
- EC50 [13, 25]: < 100 nM

SMILES: O=C(C1CCN(c2ncc(F)cn2)CC1)N(O)Cc1cc(F)cc(F)c1 [Compound 86, N-(3,5-difluorobenzyl)-1-(5-fluoropyrimidin-2-yl)-N-hydroxypiperidine-4-carboxamide]
- EC50 [1]: 1000 to 10000 nM
- IC50 [16]: < 100 nM
- EC50 [13, 23]: 1 to 1000 nM
- EC50 [13, 25]: 1 to 1000 nM

SMILES: CCC(C)(C)C(=O)N(O)Cc1cc(F)cc(F)c1F [SIR1-176]
- half-life [2, 26]: 9 min
- half-life [8, 27]: 67 min
- EC50 [17]: 65 nM
- half-life [12, 28]: 22 min

SMILES: CCC(C)(C)C(=O)N(O)Cc1ccc(F)cc1F [SIR1-179]
- half-life [2, 26]: 23 min
- half-life [8, 27]: 198 min
- EC50 [17]: 197 nM
- half-life [12, 28]: 28 min

SMILES: CCC(C)(C)C(=O)N(O)Cc1ccc(F)c(F)c1 [SIR1-180]
- half-life [2, 26]: 11 min
- half-life [8, 27]: 107 min
- EC50 [17]: 55 nM
- half-life [12, 28]: 29 min

SMILES: CCC(C)(C)C(=O)N(O)Cc1ccc(F)cc1 [SIR1-181]
- half-life [2, 26]: 24 min
- AUC(0-inf) ([7]; Rat, PO 10 mg/kg): 24.3 ng·h/mL
- Cmax ([7]; Rat, PO 10 mg/kg): 32.3 ng/mL
- half-life ([7]; 10 mg/kg, PO 10 mg/kg): 32.5 min
- half-life [8, 27]: 178 min
- AUC(0-inf) ([18]; IV 5 mg/kg): 3210 ng·h/mL
- clearance ([18]; IV 5 mg/kg): 25.9 mL/min/kg
- half-life ([18]; IV 5 mg/kg): 120 min
- Vd ([18]; IV 5 mg/kg, read-out: Vdss): 1.8 L/kg
- AUC(0-inf) ([18]; PO 10 mg/kg): 148 ng·h/mL
- Cmax ([18]; PO 10 mg/kg): 195 ng/mL
- bioavailability ([18]; PO 10 mg/kg): 2.5%
- half-life ([18]; PO 10 mg/kg): 276 min
- AUC(0-inf) ([19]; IV 2 mg/kg): 522 ng·h/mL
- clearance ([19]; IV 2 mg/kg): 63.7 mL/min/kg
- half-life ([19]; IV 2 mg/kg): 35.7 min
- Vd ([19]; IV 2 mg/kg, read-out: Vdss): 3.28 L/kg
- AUC(0-inf) ([19]; PO 10 mg/kg): 1740 ng·h/mL
- Cmax ([19]; PO 10 mg/kg): 2850 ng/mL
- bioavailability ([19]; PO 10 mg/kg): 66.6%
- half-life ([19]; PO 10 mg/kg): 30.8 min
- EC50 [17]: 64 nM
- half-life [12, 28]: 37 min

SMILES: CCC(C)(C)C(=O)N(O)Cc1ccc(F)c(F)c1F [SIR1-184]
- half-life [2, 26]: 12 min
- half-life [8, 27]: 36 min
- EC50 [17]: 272 nM
- half-life [12, 28]: 19 min

SMILES: CCC(C)(C)C(=O)N(O)Cc1cc(F)c(F)c(F)c1 [SIR1-186]
- half-life [2, 26]: 6 min
- half-life [8, 27]: 64 min
- EC50 [17]: 46 nM
- half-life [12, 28]: 21 min
